In ChEMBL document CHEMBL4482311, “Modulators of Prostate-Specific G-Protein Receptor (PSGR/OR51E2) and Methods of Using Same” (2018):
Calls of active or inactive are those of the source.

Columns and labels:
[1] = target: T1, Olfactory receptor 51E2 (Homo sapiens) (UniProt Q9H255); assay: Agonist activity at PSGR/OR51E2 in human LNCaP cells assessed as induction of change in intracellular metabolites level by measuring guanine level at 1 mM incubated for 72 hrs by GC/MS analysis; assay type: cell-based
T1 sequence (whole entry): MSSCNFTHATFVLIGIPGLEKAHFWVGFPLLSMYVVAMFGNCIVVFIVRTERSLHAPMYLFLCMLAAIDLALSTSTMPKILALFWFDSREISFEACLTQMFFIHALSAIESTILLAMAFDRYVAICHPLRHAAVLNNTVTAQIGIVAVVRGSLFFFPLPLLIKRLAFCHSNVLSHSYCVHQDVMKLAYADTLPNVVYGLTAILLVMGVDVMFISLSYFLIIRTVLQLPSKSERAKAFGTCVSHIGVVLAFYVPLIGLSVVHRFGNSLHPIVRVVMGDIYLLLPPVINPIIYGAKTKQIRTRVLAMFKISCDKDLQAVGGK

[2] = target: T1, Olfactory receptor 51E2 (Homo sapiens); assay: Agonist activity at PSGR/OR51E2 in human LNCaP cells assessed as induction of change in intracellular metabolites level by measuring lactic acid level at 1 mM incubated for 72 hrs by GC/MS analysis; assay type: cell-based
[3] = target: T1, Olfactory receptor 51E2 (Homo sapiens); assay: Agonist activity at PSGR/OR51E2 in human LNCaP cells assessed as induction of change in intracellular metabolites level by measuring lactose level at 1 mM incubated for 72 hrs by GC/MS analysis; assay type: cell-based
[4] = target: T1, Olfactory receptor 51E2 (Homo sapiens); assay: Agonist activity at PSGR/OR51E2 in human LNCaP cells assessed as induction of change in intracellular metabolites level by measuring spermidine level at 1 mM incubated for 72 hrs by GC/MS analysis; assay type: cell-based
[5] = target: T1, Olfactory receptor 51E2 (Homo sapiens); assay: Agonist activity at PSGR/OR51E2 in human LNCaP cells assessed as induction of change in extracellular metabolites level by measuring spermidine level at 1 mM incubated for 72 hrs by GC/MS analysis; assay type: cell-based
[6] = target: T1, Olfactory receptor 51E2 (Homo sapiens); assay: Agonist activity at PSGR/OR51E2 in human LNCaP cells assessed as induction of change in extracellular metabolites level by measuring lactose level at 1 mM incubated for 72 hrs by GC/MS analysis; assay type: cell-based
[7] = target: T1, Olfactory receptor 51E2 (Homo sapiens); assay: Agonist activity at PSGR/OR51E2 in human LNCaP cells assessed as induction of change in extracellular metabolites level by measuring ornithine level at 1 mM incubated for 72 hrs by GC/MS analysis; assay type: cell-based
[8] = target: T1, Olfactory receptor 51E2 (Homo sapiens); assay: Agonist activity at PSGR/OR51E2 in human LNCaP cells assessed as induction of change in extracellular metabolites level by measuring glutamic acid level at 1 mM incubated for 72 hrs by GC/MS analysis; assay type: cell-based
[9] = target: T1, Olfactory receptor 51E2 (Homo sapiens); assay: Agonist activity at PSGR/OR51E2 in human LNCaP cells assessed as induction of change in intracellular metabolites level by measuring tyramine level at 1 mM incubated for 72 hrs by GC/MS analysis; assay type: cell-based
[10] = target: T1, Olfactory receptor 51E2 (Homo sapiens); assay: Agonist activity at PSGR/OR51E2 in human LNCaP cells assessed as induction of change in intracellular metabolites level by measuring glutamic acid level at 1 mM incubated for 72 hrs by GC/MS analysis; assay type: cell-based
[11] = target: T1, Olfactory receptor 51E2 (Homo sapiens); assay: Agonist activity at PSGR/OR51E2 in human LNCaP cells assessed as induction of change in intracellular metabolites level by measuring threonine level at 1 mM incubated for 72 hrs by GC/MS analysis; assay type: cell-based
[12] = target: T1, Olfactory receptor 51E2 (Homo sapiens); assay: Agonist activity at PSGR/OR51E2 in human LNCaP cells assessed as induction of change in intracellular metabolites level by measuring aspartic acid level at 1 mM incubated for 72 hrs by GC/MS analysis; assay type: cell-based
[13] = target: T1, Olfactory receptor 51E2 (Homo sapiens); assay: Agonist activity at PSGR/OR51E2 in human LNCaP cells assessed as induction of change in extracellular metabolites level by measuring glycine level at 1 mM incubated for 72 hrs by GC/MS analysis; assay type: cell-based
[14] = target: T1, Olfactory receptor 51E2 (Homo sapiens); assay: Agonist activity at PSGR/OR51E2 in human LNCaP cells assessed as induction of change in extracellular metabolites level by measuring guanine level at 1 mM incubated for 72 hrs by GC/MS analysis; assay type: cell-based
[15] = target: T1, Olfactory receptor 51E2 (Homo sapiens); assay: Agonist activity at PSGR/OR51E2 in human LNCaP cells assessed as induction of change in intracellular metabolites level by measuring spermine level at 1 mM incubated for 72 hrs by GC/MS analysis; assay type: cell-based
[16] = target: T1, Olfactory receptor 51E2 (Homo sapiens); assay: Agonist activity at PSGR/OR51E2 in human LNCaP cells assessed as induction of change in extracellular metabolites level by measuring threitol/erythritol level at 1 mM incubated for 72 hrs by GC/MS analysis; assay type: cell-based
[17] = target: T1, Olfactory receptor 51E2 (Homo sapiens); assay: Agonist activity at PSGR/OR51E2 in human LNCaP cells assessed as induction of change in extracellular metabolites level by measuring serine level at 1 mM incubated for 72 hrs by GC/MS analysis; assay type: cell-based
[18] = target: T1, Olfactory receptor 51E2 (Homo sapiens); assay: Agonist activity at PSGR/OR51E2 in human LNCaP cells assessed as induction of change in intracellular metabolites level by measuring serine level at 1 mM incubated for 72 hrs by GC/MS analysis; assay type: cell-based
[19] = target: T1, Olfactory receptor 51E2 (Homo sapiens); assay: Agonist activity at PSGR/OR51E2 in human LNCaP cells assessed as induction of change in intracellular metabolites level by measuring ornithine level at 1 mM incubated for 72 hrs by GC/MS analysis; assay type: cell-based
[20] = target: T1, Olfactory receptor 51E2 (Homo sapiens); assay: Agonist activity at PSGR/OR51E2 in human LNCaP cells assessed as induction of change in extracellular metabolites level by measuring aspartic acid level at 1 mM incubated for 72 hrs by GC/MS analysis; assay type: cell-based
[21] = target: T1, Olfactory receptor 51E2 (Homo sapiens); assay: Agonist activity at PSGR/OR51E2 in human LNCaP cells assessed as induction of change in extracellular metabolites level by measuring lactic acid level at 1 mM incubated for 72 hrs by GC/MS analysis; assay type: cell-based
[22] = target: T1, Olfactory receptor 51E2 (Homo sapiens); assay: Agonist activity at PSGR/OR51E2 in human LNCaP cells assessed as induction of change in extracellular metabolites level by measuring tyramine level at 1 mM incubated for 72 hrs by GC/MS analysis; assay type: cell-based
[23] = target: T1, Olfactory receptor 51E2 (Homo sapiens); assay: Agonist activity at PSGR/OR51E2 in human LNCaP cells assessed as induction of change in intracellular metabolites level by measuring glycine level at 1 mM incubated for 72 hrs by GC/MS analysis; assay type: cell-based
[24] = target: T1, Olfactory receptor 51E2 (Homo sapiens); assay: Agonist activity at PSGR/OR51E2 in human LNCaP cells assessed as induction of change in intracellular metabolites level by measuring dehydro-alanine level at 1 mM incubated for 72 hrs by GC/MS analysis; assay type: cell-based
[25] = target: T1, Olfactory receptor 51E2 (Homo sapiens); assay: Agonist activity at PSGR/OR51E2 in human LNCaP cells assessed as induction of change in extracellular metabolites level by measuring dehydro-alanine level at 1 mM incubated for 72 hrs by GC/MS analysis; assay type: cell-based
[26] = target: T1, Olfactory receptor 51E2 (Homo sapiens); assay: Agonist activity at PSGR/OR51E2 in human LNCaP cells assessed as induction of change in intracellular metabolites level by measuring threitol/erythritol level at 1 mM incubated for 72 hrs by GC/MS analysis; assay type: cell-based
[27] = target: T1, Olfactory receptor 51E2 (Homo sapiens); assay: Agonist activity at PSGR/OR51E2 in human LNCaP cells assessed as induction of change in extracellular metabolites level by measuring glutamine level at 1 mM incubated for 72 hrs by GC/MS analysis; assay type: cell-based
[28] = target: T1, Olfactory receptor 51E2 (Homo sapiens); assay: Agonist activity at PSGR/OR51E2 in human LNCaP cells assessed as induction of change in intracellular metabolites level by measuring glutamine level at 1 mM incubated for 72 hrs by GC/MS analysis; assay type: cell-based
[29] = target: T1, Olfactory receptor 51E2 (Homo sapiens); assay: Agonist activity at PSGR/OR51E2 in human LNCaP cells assessed as induction of change in extracellular metabolites level by measuring spermine level at 1 mM incubated for 72 hrs by GC/MS analysis; assay type: cell-based
[30] = target: T1, Olfactory receptor 51E2 (Homo sapiens); assay: Agonist activity at PSGR/OR51E2 in human LNCaP cells assessed as induction of change in extracellular metabolites level by measuring threonine level at 1 mM incubated for 72 hrs by GC/MS analysis; assay type: cell-based
[31] = test system: LNCaP; assay: Growth inhibition of human LNCAP cells incubated for 7 days by CellTiter-Glo assay; assay type: functional, cell-based

CCC(=O)O
active: Activity [1] | Activity [2] | Activity [3] | Activity [4] | Activity [5] | Activity [6] | Activity [7] | Activity [8] | Activity [9] | Activity [10] | Activity [11] | Activity [12] | Activity [13] | Activity [14] | Activity [15] | Activity [16] | Activity [17] | Activity [18] | Activity [19] | Activity [20] | Activity [21] | Activity [22] | Activity [23] | Activity [24] | Activity [25] | Activity [26] | Activity [27] | Activity [28] | Activity [29] | Activity [30]

CC1=C(/C=C/C(C)=C/C=C/C(C)=C\C(=O)O)C(C)(C)CCC1
active: growth inhibition (GI) [31]
